Legend:
[1] = molecular target: CREB-binding protein/Histone acetyltransferase p300 (Homo sapiens, UniProt Q09472+Q92793); assay: Inhibition of H3K27Ac (LnCaP-FGC); format: cell-based; details: lncap-clone-fgc
[2] = tested on: Receptor-type tyrosine-protein kinase FLT3 (Homo sapiens), P36888 [UNDEFINED MUTATION]; details: Compound concentration 1000.0 nM
[3] = molecular target: Dual specificity mitogen-activated protein kinase kinase 1 (Homo sapiens) (UniProt Q02750); details: Compound concentration 1000.0 nM
Dual specificity mitogen-activated protein kinase kinase 1 (Homo sapiens), sequence (Q02750 whole entry): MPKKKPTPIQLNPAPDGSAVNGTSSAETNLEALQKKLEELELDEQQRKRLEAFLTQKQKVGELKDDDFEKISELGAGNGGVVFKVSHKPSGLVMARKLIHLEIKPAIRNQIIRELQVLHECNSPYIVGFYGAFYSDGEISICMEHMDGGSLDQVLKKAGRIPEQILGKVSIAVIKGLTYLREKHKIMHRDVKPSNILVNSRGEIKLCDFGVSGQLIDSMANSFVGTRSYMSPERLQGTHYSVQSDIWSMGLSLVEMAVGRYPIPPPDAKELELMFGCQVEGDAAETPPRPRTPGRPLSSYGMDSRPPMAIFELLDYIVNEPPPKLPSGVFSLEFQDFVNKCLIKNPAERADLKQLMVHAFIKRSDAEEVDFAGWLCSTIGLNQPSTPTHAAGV

[4] = molecular target: Prostaglandin G/H synthase 1 (Homo sapiens) (UniProt P23219); assay: COX1(h) CEREP ligand profiling; details: Compound concentration 10.0 uM
[5] = molecular target: Cholecystokinin receptor type A (Homo sapiens) (UniProt P32238); assay: CCK1 (CCKA) (h) CEREP ligand profiling; details: filed as agonist, Compound concentration 10.0 uM
Cholecystokinin receptor type A (Homo sapiens), sequence (P32238 whole entry): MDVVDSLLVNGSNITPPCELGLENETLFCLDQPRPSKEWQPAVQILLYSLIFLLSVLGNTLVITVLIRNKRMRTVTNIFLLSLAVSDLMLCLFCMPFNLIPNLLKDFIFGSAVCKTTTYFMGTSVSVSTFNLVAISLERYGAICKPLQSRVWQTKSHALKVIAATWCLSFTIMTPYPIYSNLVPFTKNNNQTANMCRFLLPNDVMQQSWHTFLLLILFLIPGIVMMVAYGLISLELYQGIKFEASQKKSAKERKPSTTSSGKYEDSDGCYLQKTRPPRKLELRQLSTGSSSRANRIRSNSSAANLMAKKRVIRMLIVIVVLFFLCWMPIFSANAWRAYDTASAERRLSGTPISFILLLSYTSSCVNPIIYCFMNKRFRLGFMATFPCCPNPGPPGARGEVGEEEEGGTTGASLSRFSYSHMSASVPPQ

[6] = molecular target: GABA-A receptor; alpha-1/beta-2/gamma-2 (Homo sapiens) (UniProt P14867+P47870+P18507); assay: GABAA1 (h) (alpha 1,beta 2,gamma 2) CEREP ligand profiling; format: protein-complex assay; details: filed as agonist, Compound concentration 10.0 uM
[7] = molecular target: Receptor-type tyrosine-protein kinase FLT3 (Homo sapiens) (UniProt P36888); details: Compound concentration 1000.0 nM
Receptor-type tyrosine-protein kinase FLT3 (Homo sapiens), sequence (P36888 whole entry): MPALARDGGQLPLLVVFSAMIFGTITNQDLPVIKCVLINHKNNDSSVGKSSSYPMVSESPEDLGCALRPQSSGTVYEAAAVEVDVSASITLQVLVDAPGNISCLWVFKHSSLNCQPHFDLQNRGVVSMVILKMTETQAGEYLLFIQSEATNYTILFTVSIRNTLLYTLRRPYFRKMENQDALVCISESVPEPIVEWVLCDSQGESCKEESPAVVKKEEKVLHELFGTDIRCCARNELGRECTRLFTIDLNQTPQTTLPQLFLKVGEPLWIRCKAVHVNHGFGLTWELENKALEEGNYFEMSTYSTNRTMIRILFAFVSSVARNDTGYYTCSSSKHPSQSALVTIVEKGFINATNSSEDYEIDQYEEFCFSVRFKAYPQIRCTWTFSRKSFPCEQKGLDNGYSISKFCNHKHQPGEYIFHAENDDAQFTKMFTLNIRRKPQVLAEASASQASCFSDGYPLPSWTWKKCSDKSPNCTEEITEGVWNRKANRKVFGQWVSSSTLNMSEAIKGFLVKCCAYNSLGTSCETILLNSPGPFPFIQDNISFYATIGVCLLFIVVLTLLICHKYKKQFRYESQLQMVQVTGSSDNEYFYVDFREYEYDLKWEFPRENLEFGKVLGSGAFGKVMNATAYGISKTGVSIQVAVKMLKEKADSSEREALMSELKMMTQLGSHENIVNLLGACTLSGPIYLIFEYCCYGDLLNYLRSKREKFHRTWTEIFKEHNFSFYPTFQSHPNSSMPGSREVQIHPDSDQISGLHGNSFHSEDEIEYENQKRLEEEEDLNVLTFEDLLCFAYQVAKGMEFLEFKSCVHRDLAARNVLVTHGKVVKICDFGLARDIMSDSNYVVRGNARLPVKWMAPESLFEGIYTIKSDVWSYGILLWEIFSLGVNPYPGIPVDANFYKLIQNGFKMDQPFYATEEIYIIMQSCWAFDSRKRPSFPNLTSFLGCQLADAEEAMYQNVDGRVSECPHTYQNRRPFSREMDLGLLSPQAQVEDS

[8] = molecular target: Activin receptor type-2A (Homo sapiens) (UniProt P27037); details: Compound concentration 1000.0 nM
Activin receptor type-2A (Homo sapiens), sequence (P27037 whole entry): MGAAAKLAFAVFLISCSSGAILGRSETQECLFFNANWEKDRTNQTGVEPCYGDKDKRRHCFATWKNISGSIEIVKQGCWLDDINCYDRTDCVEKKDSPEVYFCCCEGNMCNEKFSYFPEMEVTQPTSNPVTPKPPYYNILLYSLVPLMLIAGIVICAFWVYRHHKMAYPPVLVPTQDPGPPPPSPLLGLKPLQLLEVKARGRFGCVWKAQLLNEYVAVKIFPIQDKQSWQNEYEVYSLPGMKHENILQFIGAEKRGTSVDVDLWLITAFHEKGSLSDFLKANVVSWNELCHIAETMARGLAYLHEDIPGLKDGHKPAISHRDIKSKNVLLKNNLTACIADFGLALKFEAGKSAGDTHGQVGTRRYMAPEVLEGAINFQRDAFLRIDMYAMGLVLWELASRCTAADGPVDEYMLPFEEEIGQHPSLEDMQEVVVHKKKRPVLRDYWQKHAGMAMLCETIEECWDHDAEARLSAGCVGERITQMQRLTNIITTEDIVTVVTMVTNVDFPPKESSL

[9] = molecular target: Neuropeptide Y receptor type 1 (Homo sapiens) (UniProt P25929); assay: Y1 (h) CEREP ligand profiling; details: filed as agonist, Compound concentration 10.0 uM
Neuropeptide Y receptor type 1 (Homo sapiens), sequence (P25929 whole entry): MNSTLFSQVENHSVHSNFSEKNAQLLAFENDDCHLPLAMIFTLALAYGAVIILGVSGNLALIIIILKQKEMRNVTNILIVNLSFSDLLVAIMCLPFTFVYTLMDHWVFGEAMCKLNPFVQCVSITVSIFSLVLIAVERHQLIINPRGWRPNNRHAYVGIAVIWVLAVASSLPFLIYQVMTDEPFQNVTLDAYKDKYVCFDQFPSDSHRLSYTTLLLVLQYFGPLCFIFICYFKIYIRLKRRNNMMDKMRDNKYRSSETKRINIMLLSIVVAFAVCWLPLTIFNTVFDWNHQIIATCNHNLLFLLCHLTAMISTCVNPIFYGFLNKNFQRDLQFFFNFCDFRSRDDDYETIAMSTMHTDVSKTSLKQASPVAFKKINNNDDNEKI

[10] = molecular target: Endothelin receptor type B (Homo sapiens) (UniProt P24530); assay: ETB (h) CEREP ligand profiling; details: filed as agonist, Compound concentration 10.0 uM
[11] = molecular target: Insulin-like growth factor 1 receptor (Homo sapiens) (UniProt P08069); details: Compound concentration 1000.0 nM
[12] = molecular target: Serine/threonine-protein kinase N1 (Homo sapiens) (UniProt Q16512); details: Compound concentration 1000.0 nM
[13] = molecular target: Cyclin-dependent kinase 15 (Homo sapiens) (UniProt Q96Q40); details: Compound concentration 1000.0 nM
SU-DHL-6 = assay: SuDHL6 cell line Proliferation assay; format: functional, Homo sapiens; details: Compound concentration 10 uM; time 3 day
NCI-H1930 = assay: H1930 cell line Proliferation assay; format: functional, Homo sapiens; details: Compound concentration 10 uM; time 4 day
Ramos = assay: Ramos cell line Proliferation assay; format: functional, Homo sapiens; details: Compound concentration 10 uM; time 3 day
EMT6 = assay: EMT6 (mouse) cell line Proliferation assay; format: functional; details: Compound concentration 10 uM; time 5 day
NCI-H1836 = assay: H1836 cell line Proliferation assay; format: functional, Homo sapiens; details: Compound concentration 10 uM; time 4 day
VCaP = assay: VCaP cell line Proliferation assay; format: functional, Homo sapiens; details: Compound concentration 10 uM; time 5 day
OPM-2 = assay: OPM-2 cell line Proliferation assay; format: functional, Homo sapiens; details: Compound concentration 10 uM; time 3 day
SKM-1 = assay: SKM-1 cell line Proliferation assay; format: functional, Homo sapiens; details: Compound concentration 10 uM; time 3 day
WM 266-4 = assay: WM2664 cell line Proliferation assay; format: functional, Homo sapiens; details: Compound concentration 10 uM; time 5 day
MDA-MB-157 = assay: MDA_MB_157 cell line Proliferation assay; format: functional, Homo sapiens; details: Compound concentration 10 uM; time 5 day
BT-20 = assay: BT-20 cell line Proliferation assay; format: functional, Homo sapiens; details: Compound concentration 10 uM; time 5 day
SK-MEL-24 = assay: SKMEL24 cell line Proliferation assay; format: functional, Homo sapiens; details: Compound concentration 10 uM; time 5 day
HCC70 = assay: HCC70 cell line Proliferation assay; format: functional, Homo sapiens; details: Compound concentration 10 uM; time 5 day
NCI-H1373 = assay: H1373 cell line Proliferation assay; format: functional, Homo sapiens; details: Compound concentration 10 uM; time 3 day
K562 = assay: K562 cell line Proliferation assay; format: functional, Homo sapiens; details: Compound concentration 10 uM; time 3 day
NCI-H146 = assay: H146 cell line Proliferation assay; format: functional, Homo sapiens; details: Compound concentration 10 uM; time 4 day
NCI-H522 = assay: H522 cell line Proliferation assay; format: functional, Homo sapiens; details: Compound concentration 10 uM; time 3 day
BJAB = assay: BJAB cell line Proliferation assay; format: functional, Homo sapiens; details: Compound concentration 10 uM; time 3 day
[14] = molecular target: Adenosine receptor A3 (Homo sapiens) (UniProt P0DMS8); assay: A3 (h) CEREP ligand profiling; details: filed as agonist, Compound concentration 10.0 uM
OCI-AML2 = assay: OCI-AML2 cell line Proliferation assay; format: functional, Homo sapiens; details: Compound concentration 10 uM; time 3 day
COR-L47 = assay: Cor-L47 cell line Proliferation assay; format: functional, Homo sapiens; details: Compound concentration 10 uM; time 4 day
SUD4 = assay: SuDHL4 cell line Proliferation assay; format: functional, Homo sapiens; details: Compound concentration 10 uM; time 3 day
AMO1 = assay: AMO-1 cell line Proliferation assay; format: functional, Homo sapiens; details: Compound concentration 10 uM; time 3 day
[15] = molecular target: Sodium-dependent dopamine transporter (Homo sapiens, UniProt Q01959); assay: GPCRScan assay: inhibition of DAT; set-up: radioligand conc. used [nm] 3.6 – 16.0, parental cells stable HEK
Sodium-dependent dopamine transporter, sequence (Q01959 whole entry): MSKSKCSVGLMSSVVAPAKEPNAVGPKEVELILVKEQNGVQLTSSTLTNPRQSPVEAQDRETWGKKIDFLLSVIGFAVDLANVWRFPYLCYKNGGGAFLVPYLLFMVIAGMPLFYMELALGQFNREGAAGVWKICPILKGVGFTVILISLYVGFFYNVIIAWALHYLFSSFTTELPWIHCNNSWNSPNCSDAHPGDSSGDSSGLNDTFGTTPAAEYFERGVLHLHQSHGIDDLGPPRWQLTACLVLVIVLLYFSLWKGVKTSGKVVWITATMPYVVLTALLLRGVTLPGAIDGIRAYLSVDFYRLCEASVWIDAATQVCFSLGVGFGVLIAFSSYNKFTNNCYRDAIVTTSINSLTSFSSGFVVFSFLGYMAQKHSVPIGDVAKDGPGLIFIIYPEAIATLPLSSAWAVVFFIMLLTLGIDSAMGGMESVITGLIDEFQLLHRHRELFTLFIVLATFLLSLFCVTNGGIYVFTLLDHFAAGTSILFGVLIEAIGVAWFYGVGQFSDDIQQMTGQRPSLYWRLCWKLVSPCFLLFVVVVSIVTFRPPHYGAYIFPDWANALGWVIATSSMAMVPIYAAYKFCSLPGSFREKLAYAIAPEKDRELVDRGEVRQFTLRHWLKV

[16] = molecular target: 5-hydroxytryptamine receptor 2B (Homo sapiens, UniProt P41595); assay: GPCRScan assay: inhibition of 5-HT2B; set-up: radioligand conc. used [nm] 1.0 – 2.0, parental cells stable HEK
5-hydroxytryptamine receptor 2B, sequence (P41595 whole entry): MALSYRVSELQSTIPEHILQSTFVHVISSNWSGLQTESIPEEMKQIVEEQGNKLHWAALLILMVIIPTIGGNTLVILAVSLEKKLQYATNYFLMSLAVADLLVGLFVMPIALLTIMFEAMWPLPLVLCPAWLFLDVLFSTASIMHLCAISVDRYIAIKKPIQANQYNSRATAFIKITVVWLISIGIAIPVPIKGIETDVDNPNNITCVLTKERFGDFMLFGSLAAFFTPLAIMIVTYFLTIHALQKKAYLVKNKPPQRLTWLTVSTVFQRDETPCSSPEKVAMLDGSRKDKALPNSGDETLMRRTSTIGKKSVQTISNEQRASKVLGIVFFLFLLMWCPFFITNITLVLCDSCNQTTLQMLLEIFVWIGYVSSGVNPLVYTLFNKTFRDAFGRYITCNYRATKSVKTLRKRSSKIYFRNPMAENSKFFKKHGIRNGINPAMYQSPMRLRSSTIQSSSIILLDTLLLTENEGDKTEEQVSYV

Kasumi 1 = assay: Kasumi-1 cell line Proliferation assay; format: functional, Homo sapiens; details: Compound concentration 10 uM; time 3 day
Jurkat = assay: Jurkat cell line Proliferation assay; format: functional, Homo sapiens; details: Compound concentration 10 uM; time 3 day
NU-DUL-1 = assay: NuDUL1 cell line Proliferation assay; format: functional, Homo sapiens; details: Compound concentration 10 uM; time 3 day
4T1 = assay: 4T1 (mouse) cell line Proliferation assay; format: functional; details: Compound concentration 10 uM; time 5 day
CWR22R = assay: 22Rv1 cell line Proliferation assay; format: functional, Homo sapiens; details: Compound concentration 10 uM; time 5 day
Granta-519 = assay: Granta 519 cell line Proliferation assay; format: functional, Homo sapiens; details: Compound concentration 10 uM; time 3 day
HCC1395 = assay: HCC1395 cell line Proliferation assay; format: functional, Homo sapiens; details: Compound concentration 10 uM; time 5 day
[17] = molecular target: Histone acetyltransferase type B catalytic subunit (Homo sapiens) (UniProt O14929); assay: HAT1 (HAT) CEREP ligand profiling; details: Compound concentration 10.0 uM
Histone acetyltransferase type B catalytic subunit (Homo sapiens), sequence (O14929 2-419 limits assumed): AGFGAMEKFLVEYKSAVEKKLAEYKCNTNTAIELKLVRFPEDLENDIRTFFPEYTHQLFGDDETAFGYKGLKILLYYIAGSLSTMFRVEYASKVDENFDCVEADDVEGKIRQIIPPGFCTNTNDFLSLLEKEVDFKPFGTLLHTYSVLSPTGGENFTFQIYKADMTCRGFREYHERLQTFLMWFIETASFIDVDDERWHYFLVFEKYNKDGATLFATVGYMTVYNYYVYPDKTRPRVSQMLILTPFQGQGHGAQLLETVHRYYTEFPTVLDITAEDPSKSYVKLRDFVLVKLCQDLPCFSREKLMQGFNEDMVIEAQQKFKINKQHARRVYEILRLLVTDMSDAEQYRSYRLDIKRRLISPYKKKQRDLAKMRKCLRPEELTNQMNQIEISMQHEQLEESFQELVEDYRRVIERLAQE

NCI-H69 = assay: H69 cell line Proliferation assay; format: functional, Homo sapiens; details: Compound concentration 10 uM; time 4 day
NCI-H596 = assay: H596 cell line Proliferation assay; format: functional, Homo sapiens; details: Compound concentration 10 uM; time 3 day
U-2940 = assay: U2940 cell line Proliferation assay; format: functional, Homo sapiens; details: Compound concentration 10 uM; time 3 day
HCC38 = assay: HCC38 cell line Proliferation assay; format: functional, Homo sapiens; details: Compound concentration 10 uM; time 5 day
NCI-H2444 = assay: H2444 cell line Proliferation assay; format: functional, Homo sapiens; details: Compound concentration 10 uM; time 3 day
SK-MEL-2 = assay: SKMEL2 cell line Proliferation assay; format: functional, Homo sapiens; details: Compound concentration 10 uM; time 5 day
[18] = molecular target: B2 bradykinin receptor (Homo sapiens) (UniProt P30411); assay: B2 (h) CEREP ligand profiling; details: filed as agonist, Compound concentration 10.0 uM
B2 bradykinin receptor (Homo sapiens), sequence (P30411 whole entry): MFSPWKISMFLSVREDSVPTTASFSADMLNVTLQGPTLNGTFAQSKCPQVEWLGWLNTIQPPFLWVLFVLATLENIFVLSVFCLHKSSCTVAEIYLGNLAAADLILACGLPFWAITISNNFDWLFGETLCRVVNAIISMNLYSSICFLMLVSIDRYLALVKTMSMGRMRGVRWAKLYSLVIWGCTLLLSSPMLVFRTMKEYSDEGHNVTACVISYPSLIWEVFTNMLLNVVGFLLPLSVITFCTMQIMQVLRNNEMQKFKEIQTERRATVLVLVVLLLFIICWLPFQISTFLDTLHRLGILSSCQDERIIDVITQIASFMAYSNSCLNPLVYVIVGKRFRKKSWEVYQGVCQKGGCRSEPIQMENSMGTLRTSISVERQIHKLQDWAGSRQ

NCI-H2081 = assay: H2081 cell line Proliferation assay; format: functional, Homo sapiens; details: Compound concentration 10 uM; time 4 day
HCC4006 = assay: HCC4006 cell line Proliferation assay; format: functional, Homo sapiens; details: Compound concentration 10 uM; time 3 day
SU-DHL10 = assay: SuDHL10 cell line Proliferation assay; format: functional, Homo sapiens; details: Compound concentration 10 uM; time 3 day
KARPAS-422 = assay: Karpas422 cell line Proliferation assay; format: functional, Homo sapiens; details: Compound concentration 10 uM; time 3 day
CHL-1 = assay: CHL1 cell line Proliferation assay; format: functional, Homo sapiens; details: Compound concentration 10 uM; time 5 day
SU-DHL-5 = assay: SuDHL5 cell line Proliferation assay; format: functional, Homo sapiens; details: Compound concentration 10 uM; time 3 day
HCC1187 = assay: HCC1187 cell line Proliferation assay; format: functional, Homo sapiens; details: Compound concentration 10 uM; time 5 day
NCI-H211 = assay: H211 cell line Proliferation assay; format: functional, Homo sapiens; details: Compound concentration 10 uM; time 4 day
SU-DHL-8 = assay: SuDHL8 cell line Proliferation assay; format: functional, Homo sapiens; details: Compound concentration 10 uM; time 3 day
DU-4475 = assay: DU4475 cell line Proliferation assay; format: functional, Homo sapiens; details: Compound concentration 10 uM; time 5 day
NCI-H441 = assay: H441 cell line Proliferation assay; format: functional, Homo sapiens; details: Compound concentration 10 uM; time 3 day
MeWo = assay: MeWo cell line Proliferation assay; format: functional, Homo sapiens; details: Compound concentration 10 uM; time 5 day
[19] = molecular target: Adenosine receptor A1 (Homo sapiens) (UniProt P30542); assay: A1 (h) CEREP ligand profiling; details: filed as antagonist, Compound concentration 10.0 uM
Adenosine receptor A1 (Homo sapiens), sequence (P30542 whole entry): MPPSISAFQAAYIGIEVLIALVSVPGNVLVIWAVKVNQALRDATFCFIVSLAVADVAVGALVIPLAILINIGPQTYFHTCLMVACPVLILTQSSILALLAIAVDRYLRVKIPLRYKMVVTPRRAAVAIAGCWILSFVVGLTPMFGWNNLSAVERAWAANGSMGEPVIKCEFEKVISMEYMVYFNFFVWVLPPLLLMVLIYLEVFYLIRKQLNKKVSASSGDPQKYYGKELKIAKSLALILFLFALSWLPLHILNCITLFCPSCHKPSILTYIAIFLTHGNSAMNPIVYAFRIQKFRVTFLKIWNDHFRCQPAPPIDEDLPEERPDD

CNC(=O)Nc1ccc2c(c1)[C@@]1(CC2)OC(=O)N(CC(=O)N(Cc2ccc(F)cc2)[C@@H](C)C(F)(F)F)C1=O [A-486]
IC50 [1]: > 10000 nM | residual activity [2]: 99% | residual activity [3]: 98% | inhibition [4]: -5% | inhibition [5]: 1% | inhibition [6]: 0% | residual activity [7]: 92% | residual activity [8]: 100% | inhibition [9]: -10% | inhibition [10]: 8% | residual activity [11]: 100% | residual activity [12]: 98% | residual activity [13]: 100%

CNC(=O)Nc1ccc2c(c1)CC[C@@]21OC(=O)N(CC(=O)N(Cc2ccc(F)cc2)[C@@H](C)C(F)(F)F)C1=O [A-485]
Cell Proliferation EC50 (SU-DHL-6): 745.7 nM | Cell Proliferation EC50 (NCI-H1930): >10000 nM | Cell Proliferation EC50 (Ramos): 934 nM | Cell Proliferation EC50 (EMT6): 498.9 nM | Cell Proliferation EC50 (NCI-H1836): >10000 nM | Cell Proliferation EC50 (VCaP): 40 nM | Cell Proliferation EC50 (OPM-2): 620 nM | Cell Proliferation EC50 (SKM-1): 1340 nM | Cell Proliferation EC50 (WM 266-4): 1914 nM | Cell Proliferation EC50 (MDA-MB-157): 4592 nM | Cell Proliferation EC50 (BT-20): 336.5 nM | Cell Proliferation EC50 (SK-MEL-24): >10000 nM | Cell Proliferation EC50 (HCC70): >10000 nM | Cell Proliferation EC50 (NCI-H1373): 2341 nM | Cell Proliferation EC50 (K562): 1270 nM | Cell Proliferation EC50 (NCI-H146): 400 nM | Cell Proliferation EC50 (NCI-H522): 3517 nM | Cell Proliferation EC50 (BJAB): 281.3 nM | inhibition [14]: 40% | Cell Proliferation EC50 (OCI-AML2): 2030 nM | Cell Proliferation EC50 (COR-L47): >10000 nM | Cell Proliferation EC50 (SUD4): 720.4 nM | Cell Proliferation EC50 (AMO1): 1093 nM | Ki ([15]; read-out: Ki): 1820 nM | Ki ([15]; read-out: pKi (converted)): 1780 nM | Ki ([16]; read-out: Ki): 1290 nM | Ki ([16]; read-out: pKi (converted)): 1200 nM | Cell Proliferation EC50 (Kasumi 1): 285 nM | Cell Proliferation EC50 (Jurkat): 4030 nM | Cell Proliferation EC50 (NU-DUL-1): 478.1 nM | Cell Proliferation EC50 (4T1): >10000 nM | Cell Proliferation EC50 (CWR22R): 320 nM | Cell Proliferation EC50 (Granta-519): 3280 nM | Cell Proliferation EC50 (HCC1395): >10000 nM | inhibition [17]: -1.9% | Cell Proliferation EC50 (NCI-H69): >10000 nM | Cell Proliferation EC50 (NCI-H596): >10000 nM | Cell Proliferation EC50 (U-2940): 1332 nM | Cell Proliferation EC50 (HCC38): >10000 nM | Cell Proliferation EC50 (NCI-H2444): 5918 nM | Cell Proliferation EC50 (SK-MEL-2): >10000 nM | inhibition [18]: 0% | Cell Proliferation EC50 (NCI-H2081): >10000 nM | Cell Proliferation EC50 (HCC4006): 4640 nM | Cell Proliferation EC50 (SU-DHL10): 916.9 nM | Cell Proliferation EC50 (KARPAS-422): 245.4 nM | Cell Proliferation EC50 (CHL-1): 366 nM | Cell Proliferation EC50 (SU-DHL-5): 760.6 nM | Cell Proliferation EC50 (HCC1187): >10000 nM | Cell Proliferation EC50 (NCI-H211): 1500 nM | Cell Proliferation EC50 (SU-DHL-8): 540 nM | Cell Proliferation EC50 (DU-4475): 668.3 nM | Cell Proliferation EC50 (NCI-H441): >10000 nM | Cell Proliferation EC50 (MeWo): 2427 nM | inhibition [19]: 9%
